In patent US20240368668A1, “SUBSTRATES AND BIOMARKERS OF ADAMTS7” (The Broad Institute, Inc., priority 2021, published 2024):
Square brackets hold non-standard residues; d marks the D form. Ends that are not written are not given here.

Each substance was assayed on mouse ADAMTS7 (assay: TMT10 TAILS N-terminomics, SMC1 experiment (Ad-mADAMTS7 WT vs EQ vs Luc, technical replicates, trypsin digest)). Details: TAILS neo-N-terminal peptide abundance; log fold change, Ad-mADAMTS7 WT over EQ.
Assay type: cell-based
Source text: ADAMTS7 Expression, Cell Culture and Preparation of the Secreted Proteins—Full-length mouse Adamts7 1-1857 (Uniprot Q68SA9, WT or E373Q catalytic mutant) with a carboxyl terminal 3xFLAG tag was used to generate custom adenoviruses as previously described. Adeno-CMV-Luciferase (Ad-Luc) from Vector Biolabs was used as a negative control. Human Coronary Artery Smooth Muscle Cells (HCA-SMC) were obtained from Lonza and expanded in Lonza SmGM-2 media in 15 cm tissue culture plates. Twenty-four hours before media collection, near confluent plates were transduced with 50 MOI adenovirus and switched to Lonza Basal SM media with volumes of 20 ml per 15 cm plate. Expression of the Flag tagged ADAMTS7 was confirmed from the media using western blot and detected using the anti-Flag M2-HRP antibody (Sigma, A8592). Collected media was processed by adding protease inhibitors (1 mM EDTA and 1 mM PMSF) and clarified by 500 g×5 min spin at 4 C to pellet cell debris. Cell media supernatants were then passed through a 0.22 um filter and kept chilled. Processed media was then concentrated 50-100× using 3 kDa Centricon Plus-70 filter unit, spun at 3,500 g×60 min at 4 C. Approximately 10% of the processed, concentrated media was set aside for total secretome proteolytic analysis. The remaining 90% of the processed, concentrated media was buffer exchanged into 50 mM HEPES pH 8.0, 150 mM NaCl (2×50 ml) using the 3 kDa Centricon Plus-70 filter unit and concentrated to >2 mg/ml to serve as input for the TAILS experiment. Secretome and TAILS input samples were stored at −80° C.
For the first experiment, referred to as SMC1, 120 ml of media from 6×15 cm dishes was pooled from each condition (Luc, WT, EQ) and processed to produce three separate inputs for the TAILS experiment. Luc, WT and EQ inputs from the SMC1 experiment were each divided into triplicate 400 ug samples to generate technical replicate TAILS data. For the second experiment, referred to as SMC2, media was processed separately in triplicate for each condition (Luc1, Luc2, Luc3, WT1, WT2, WT3, EQ1, EQ2, EQ3) using 60 ml of media from 3×15 cm dishes for each process replicate. Inputs from the SMC2 experiment used process replicates of 300 ug each to generate TAILS data. The third experiment used input from cultured Human umbilical vein endothelial cells (HUVEC) from Lifeline Cell Technology grown in VascuLife Media and transduced in Lifeline Basal EC (+bFGF2 10 ng/ml). The HUVEC experiment used the same strategy as the SMC2 experiment, with 40 ml of media from 2×15 cm dishes for each process replicate and used 200 ug each to generate TAILS data. Inputs for process replicate experiments were restricted to the lowest concentration from the 9 parallel samples for SMC2 or HUVEC.
TMT10 isotopic labeling and negative selection of non-labeled peptides-Sample preparation was performed based on the TAILS protocol from the Overall lab with some modifications. From a single experiment, nine parallel protein samples in 50 mM HEPES pH 8.0, 150 mM NaCl were separately denatured with guanidinium chloride (Sigma, G4505) to reach a final concentration of 2.5M guanidinium chloride and 250 mM HEPES and incubated at 65° C. for 15 min. Reduction was achieved through addition of tris(2-carboxylethyl) phosphine (TCEP) at a final concentration of […] and incubated at 65° C. for 45 min. Alkylation reaction was performed with addition of iodoacetamide (IAA, Sigma, A3221) to a final concentration of 10 mM IAA for 15 min at room temperature in the dark. Following denaturation, reduction and alkylation steps, ten percent of each of the nine parallel protein samples was removed and combined to serve as a pooled reference. Isobaric tags were added to free amine groups using the TMT10plex Isobaric Mass Tagging Kit (ThermoFisher, 90113) with TMT channels randomly assigned to the nine samples and TMT 131 assigned to the pooled reference. […]
“LTBP1_393 (LTATNFR; listed as Homo sapiens)” showed a logFC.mWT.over.mEQ of 3.89.
With “HSPG2_3542 (IAHVELADAGQYR; listed as Homo sapiens)” the logFC.mWT.over.mEQ was 0.67.
In the case of “HSPG2_3672 (SFLPLPTIKDAYR; listed as Homo sapiens)”, the logFC.mWT.over.mEQ is reported as 1.03.
“LOXL2_318 (AYKPEQPLVR; listed as Homo sapiens)” gave a logFC.mWT.over.mEQ of 0.78.
For “FBLN2_260 (LGPPAPVQAKAR; listed as Homo sapiens)”, the logFC.mWT.over.mEQ was 4.21.
“GSN_413 (HIANVER; listed as Homo sapiens)” was tested, and the logFC.mWT.over.mEQ was 2.19.
With “HSPG2_2331 (ANLAYPAGSTQPIR; listed as Homo sapiens)” the logFC.mWT.over.mEQ was 2.04.
In the case of “FBN1_53 (LKGPNVCGSR; listed as Homo sapiens)”, the logFC.mWT.over.mEQ is reported as 4.93.
“LTBP2_1560 (TTYTECCCQDGEAWSQQCALCPPR; listed as Homo sapiens)” showed a logFC.mWT.over.mEQ of 0.71.
With “GSN_35 (SQAGAPQGR; listed as Homo sapiens)” the logFC.mWT.over.mEQ was 4.37.
“FN1_1731 (FTDVDVDSIKIAWESPQGQVSR; listed as Homo sapiens)” was tested, and the logFC.mWT.over.mEQ was 2.70.
Work on “HSPG2_2333 (LAYPAGSTQPIR; listed as Homo sapiens)” yielded a logFC.mWT.over.mEQ of 1.92.
Work on “EFEMP1_124 (AVAGPEMQTGR; listed as Homo sapiens)” yielded a logFC.mWT.over.mEQ of 4.43.
Substance “LTBP2_1023 (GKCTNLEGSFR; listed as Homo sapiens)” has a logFC.mWT.over.mEQ of 0.71.
Work on “FN1_281 (SGSGPFTDVR; listed as Homo sapiens)” yielded a logFC.mWT.over.mEQ of 1.88.
Work on “CCDC80_66 (LEEPNLQPLQR; listed as Homo sapiens)” yielded a logFC.mWT.over.mEQ of 3.70.
With “FN1_1656 (SSSPVTGYR; listed as Homo sapiens)” the logFC.mWT.over.mEQ was 1.52.
In the case of “ACTB_21 (FAGDDAPR; listed as Homo sapiens)”, the logFC.mWT.over.mEQ is reported as 1.17.
For “LTBP1_540 (HQQVIPHVYPVAAKTQLGR; listed as Homo sapiens)”, the logFC.mWT.over.mEQ was 2.70.
Substance “IGFBP3_31 (SAGLGPVVR; listed as Homo sapiens)” has a logFC.mWT.over.mEQ of 2.49.
Substance “HSPG2_1937 (SSAGQQVAR; listed as Homo sapiens)” has a logFC.mWT.over.mEQ of 0.94.
“LTBP1_494 (SVQIHQVSR; listed as Homo sapiens)” showed a logFC.mWT.over.mEQ of 2.63.
For “HSPG2_3250 (SPLPWQHR; listed as Homo sapiens)”, the logFC.mWT.over.mEQ was 1.01.
For “LASP1_123 (HEEFEKSR; listed as Homo sapiens)”, the logFC.mWT.over.mEQ was 1.40.
Substance “LOX_124 (WFQAGYSTSR; listed as Homo sapiens)” has a logFC.mWT.over.mEQ of 3.62.
“FLNA_1285 (LTQTGGPHVKAR; listed as Homo sapiens)” gave a logFC.mWT.over.mEQ of 5.06.
Work on “FLNA_695 (FTVDAKHGGKAPLR; listed as Homo sapiens)” yielded a logFC.mWT.over.mEQ of 5.04.
For “HSPG2_4075 (GCVGEVSVNGKR; listed as Homo sapiens)”, the logFC.mWT.over.mEQ was 0.75.
For “FBN1_29 (LEAGNVKETR; listed as Homo sapiens)”, the logFC.mWT.over.mEQ was 4.49.
“GALNT2_31 (LAGGAGGGAGR; listed as Homo sapiens)” gave a logFC.mWT.over.mEQ of 1.19.
Substance “LTBP2_485 (SVQIHQVAQVR; listed as Homo sapiens)” has a logFC.mWT.over.mEQ of 2.23.
Substance “LTBP1_546 (HVYPVAAKTQLGR; listed as Homo sapiens)” has a logFC.mWT.over.mEQ of 4.67.
“FN1_40 (QSPVAVSQSKPGCYDNGKHYQINQQWER; listed as Homo sapiens)” showed a logFC.mWT.over.mEQ of 4.27.
In the case of “HSPG2_2688 (VADSGEYVCR; listed as Homo sapiens)”, the logFC.mWT.over.mEQ is reported as 3.02.
Work on “HEG1_49 (GAGLELQLER; listed as Homo sapiens)” yielded a logFC.mWT.over.mEQ of 1.20.
Substance “EFEMP1_125 (VAGPEMQTGR; listed as Homo sapiens)” has a logFC.mWT.over.mEQ of 2.25.
Substance “LOXL1_219 (VASAGVIYPYQPR; listed as Homo sapiens)” has a logFC.mWT.over.mEQ of 1.09.
Substance “LOXL2_37 (FQQPAPEYHQPQAPANVAKIQLR; listed as Homo sapiens)” has a logFC.mWT.over.mEQ of 3.28.
In the case of “LTBP2_533 (SGEPPRPLPPAAPR; listed as Homo sapiens)”, the logFC.mWT.over.mEQ is reported as 1.06.
With “FBLN2_259 (ALGPPAPVQAKAR; listed as Homo sapiens)” the logFC.mWT.over.mEQ was 1.29.
In the case of “EHBP1L1_298 (TAPTPAPR; listed as Homo sapiens)”, the logFC.mWT.over.mEQ is reported as 1.23.
In the case of “HSPG2_4021 (LNKDGSLR; listed as Homo sapiens)”, the logFC.mWT.over.mEQ is reported as 0.73.
Work on “AEBP1_37 (FLEGFLSELEPEPR; listed as Homo sapiens)” yielded a logFC.mWT.over.mEQ of 3.41.
With “FN1_2143 (FEEHGFR; listed as Homo sapiens)” the logFC.mWT.over.mEQ was 1.24.
“LOXL2_38 ([code q]QPAPEYHQPQAPANVAKIQLR; not fully specified; listed as Homo sapiens)” showed a logFC.mWT.over.mEQ of 1.26.
“IGFBP7_101 (AAGGPGVSGVCVCKSR; listed as Homo sapiens)” showed a logFC.mWT.over.mEQ of 3.69.
“APLP2_579 (ISETPVDVR; listed as Homo sapiens)” was tested, and the logFC.mWT.over.mEQ was 2.00.
With “LTBP2_760 (SSGALPGPAER; listed as Homo sapiens)” the logFC.mWT.over.mEQ was 1.24.
Substance “LOX_80 (ANASAQQPR; listed as Homo sapiens)” has a logFC.mWT.over.mEQ of 2.18.
With “HLA−C_52 (VDDTQFVR; listed as Homo sapiens)” the logFC.mWT.over.mEQ was 0.78.
For “LOX_58 (LSLGSQYQPQR; listed as Homo sapiens)”, the logFC.mWT.over.mEQ was 0.99.
“FN1_36 (MVQPQSPVAVSQSKPGCYDNGKHYQINQQWER; listed as Homo sapiens)” showed a logFC.mWT.over.mEQ of 3.34.
Substance “LTBP2_1584 (SSEVYAQLCNVAR; listed as Homo sapiens)” has a logFC.mWT.over.mEQ of 1.08.
For “IGFBP3_200 (FSSESKR; listed as Homo sapiens)”, the logFC.mWT.over.mEQ was 2.41.
“EFHD2_67 (QGIGEPQSPSR; listed as Homo sapiens)” gave a logFC.mWT.over.mEQ of 0.90.
“LOX_126 (QAGYSTSR; listed as Homo sapiens)” gave a logFC.mWT.over.mEQ of 1.59.
“FN1_47 ([code q]SKPGCYD[code n]GKHYQINQQWER; not fully specified; listed as Homo sapiens)” gave a logFC.mWT.over.mEQ of 2.89.
With “FN1_282 (GSGPFTDVR; listed as Homo sapiens)” the logFC.mWT.over.mEQ was 3.89.
For “IFI30_43 (YKTGNLYLR; listed as Homo sapiens)”, the logFC.mWT.over.mEQ was 3.19.
With “ACTB_105 (LTEAPLNPKANR; listed as Homo sapiens)” the logFC.mWT.over.mEQ was 2.00.
Work on “IGFBP3_32 (AGLGPVVR; listed as Homo sapiens)” yielded a logFC.mWT.over.mEQ of 3.78.
For “HSPG2_3813 (SSGFIGCVR; listed as Homo sapiens)”, the logFC.mWT.over.mEQ was 1.09.
“LOX_81 (NASAQQPR; listed as Homo sapiens)” gave a logFC.mWT.over.mEQ of 1.69.
In the case of “HSPG2_4133 (DGFKGDLCEHEENPCQLR; listed as Homo sapiens)”, the logFC.mWT.over.mEQ is reported as 0.76.
“LGALS1_53 (HGDANTIVCNSKDGGAWGTEQR; listed as Homo sapiens)” was tested, and the logFC.mWT.over.mEQ was 3.89.
“LTBP2_1371 (SGQKGHAPCSSVLGR; listed as Homo sapiens)” showed a logFC.mWT.over.mEQ of 0.93.
For “FN1_2217 (FQDTSEYIISCHPVGTDEEPLQFR; listed as Homo sapiens)”, the logFC.mWT.over.mEQ was 2.27.
“HSPG2_275 (LLPGSVR; listed as Homo sapiens)” gave a logFC.mWT.over.mEQ of 2.49.
“LGALS3BP_447 (FQAPSDYR; listed as Homo sapiens)” gave a logFC.mWT.over.mEQ of 4.13.
“HSPG2_4004 (SAEPLALGR; listed as Homo sapiens)” gave a logFC.mWT.over.mEQ of 1.25.
Substance “HTRA1_33 (LAAGCPDR; listed as Homo sapiens)” has a logFC.mWT.over.mEQ of 2.78.
